Test results reported in patent US20050085420A1, “Method of modulating apoptosis and compositions thereof” (priority 2003, published 2005).

Legend:
Assay type in all cases: cell-based, mouse
vdac2 -/- MEF cell lines [1] = test: Cytochrome c release assay (subcellular fractionation, immunoblot), vdac2 -/- cells; details: 1 μM staurosporine
Description: (§1) FIG. 4C is a photograph depicting treatment of wt or vdac2 -/- MEF cell lines with 1 μM STS. The wt or vdac2 -/- MEF cell lines were subcellularly fractionated (see method) at indicated time points. Cytochrome c distribution in the cytosol versus mitochondria was assessed by immunoblot developed with an anti-cytochrome c antibody.
(§2) MEF cell lines treated with 1 μM staurosporine were harvested at various time points and lysed for 5 min in isotonic buffer containing 10 mM KCl, 5 mM MgCl2, 1 mM EDTA, 1 mM EGTA, 250 mM sucrose, 20 mM Hepes, pH 7.2, 0.025% digitonin, and complete protease inhibitors (Roche). Organelles that contain mitochondria were removed from the soluble cytosolic fraction by pelleting at 15000 g. Supernatant and mitochondrial pellets were solubilized in SDS-PAGE loading buffer and analyzed by an immunoblot, developed with an anti-cytochrome c Ab. […]
(§3) In contrast, the response of wt- and vdac2-dificient cells was similar when the extrinsic death pathway was activated by TNFα (FIG. 4E). […] BAK already underwent oligomerization within 5 hours after staurosporine treatment in vdac2 -/- cells but not wt cells, as assessed by gel filtration (FIG. 4F) (X. Roucou, S. Montessuit, B. Antonsson, J. C. Martinou, Biochem J 368, 915-21. (2002)). […]

wt MEF lines = test: Cytochrome c fluorescence microscopy after staurosporine, wt MEF line; details: 1 μM STS, 4 hours
Description: (§4) FIG. 4D is a photograph depicting two-color fluorescence microscopy of wt and vdac2 -/- MEF lines at 4 hours following 1 μM STS. Red indicates cytochrome c and blue is Hoechst staining of DNA.
(§5) MEF cell lines treated with 1 μM staurosporine were harvested at various time points and lysed for 5 min in isotonic buffer containing 10 mM KCl, 5 mM MgCl2, 1 mM EDTA, 1 mM EGTA, 250 mM sucrose, 20 mM Hepes, pH 7.2, 0.025% digitonin, and complete protease inhibitors (Roche). Organelles that contain mitochondria were removed from the soluble cytosolic fraction by pelleting at 15000 g. Supernatant and mitochondrial pellets were solubilized in SDS-PAGE loading buffer and analyzed by an immunoblot, developed with an anti-cytochrome c Ab. Protein cross-linking, immunoblot, immunoprecipitation, isolation of mitochondria, cell viability assays, and anti-cytochrome c immunohistochemistry were described previously E. H. Cheng et al., Mol Cell 8, 705-11. (2001).

vdac2 -/- MEF cell lines [2] = test: BAK oligomerization by gel filtration after staurosporine, vdac2 -/- cells
Description: (§6) FIG. 4F is a photograph depicting mitochondria isolated from wt or vdac2 -/- MEF cell lines with or without treatment with STS for 5 hours were solubilized in 2% CHAPS buffer. 200 μg of lysate was subjected to Superdex 200 (HR 10/30) gel filtration column chromatography. Fractions were analyzed by an immunoblot developed with anti-BAK antibody.
(§7) The chromatographic step of Superdex 200 (HR 10/30, Amersham-Pharmacia) was performed on an automatic fast protein liquid chromatography (FPLC) station (Amersham-Pharmacia) at 4° C. […] Fractions of 0.6 ml were collected, precipitated by trichloroacetic acid, and analyzed by an immunoblot (fractions 16-31) developed with an anti-BAK Ab.
as §3

vdac2 -/- MEF lines = test: Cytochrome c fluorescence microscopy after staurosporine, vdac2 -/- MEF line; details: 1 μM STS, 4 hours
Description: as §4, §5

wt MEF cell lines [3] = test: BAK oligomerization by gel filtration after staurosporine, wt cells
Description: as §6, §7, §3

wt MEF cell lines [4] = test: Cytochrome c release assay (subcellular fractionation, immunoblot), wt cells; details: 1 μM staurosporine
Description: as §1, §2, §3

Bax -/- MEFs = test: Annexin-V cell death after retroviral expression of VDAC1 or VDAC2 in Bax -/- MEFs; details: Bax -/- cells
Description: (§8) FIG. 3A are two graphs illustrating Bax -/- or Bak -/- MEFs at 2 days following retroviral expression of VDAC1, VDAC2, or GFP (MIG vector control), wherein the Bax -/- or Bak -/- MEFs were treated with 1.2 μM staurosporine (STS). Cell death was quantitated by flow cytometric detection of Annexin-V staining at indicated time points. Values shown are mean ±1 SD of three independent experiments.
(§9) FIG. 3B is a histogram depicting Bax -/- or Bak -/- MEFs at 2 days following retroviral expression of VDAC2 or GFP (MIG vector control), wherein the Bax -/- or Bak -/- MEFs were infected with tBID-expressing retrovirus. Cell death was quantitated by flow cytometric detection of Annexin-V staining at 24 hr. Values shown are mean ±1 SD of three independent experiments.
as §8, with “6” for “3A”, “that depict” for “illustrating”, “10 μg/ml etoposide.” for “1.2 μM staurosporine (STS).”
(§10) Previous studies have shown that cells doubly deficient for BAX and BAK are resistant to intrinsic death stimuli, whereas cells singly deficient for BAX or BAK are still susceptible (M. C. Wei et al., Science 292, 727-30. (2001)). As VDAC2 interacts with BAK but not BAX, the ability of VDAC2 to modulate apoptosis mediated by BAK or BAX was tested. According to one hypothesis, VDAC2 might function as an inhibitor of BAK or VDAC2 itself might function as a proapoptotic factor once released from BAK. To address these alternatives VDAC 1 or VDAC2 was expressed in Bax -/- or Bak -/- singly deficient mouse embryonic fibroblasts (MEFs) followed by treatment with staurosporine or etoposide. […] Expression of VDAC2 inhibited tBID-induced apoptosis of Bax -/- cells but not Bak -/- cells, further supporting a selective role for VDAC2 in negatively regulating BAK-dependent apoptosis (FIG. 3B).

vdac2 -/- MEFs = test: Re-expression of VDAC2 in vdac2 -/- MEFs, Annexin-V cell death; details: normal physiologic levels, 1.2 μM staurosporine 6 hr
Description: FIG. 3E is a histogram depicting infection of primary vdac2 -/- MEFs with retrovirus expressing GFP (MIG vector control) or VDAC2-IRES-GFP. At 36 hours the GFP-positive cells isolated by MoFlo sorting were treated with 1.2 μM staurosporine for 6 hr. Cell death was quantitated by flow cytometric detection of Annexin-V staining. Values shown are mean ±1 SD of three independent experiments.

Bak -/- MEFs = test: Annexin-V cell death after retroviral expression of VDAC1 or VDAC2 in Bak -/- MEFs; details: Bak -/- cells
Description: as §8, §9
as §8, with “6” for “3A”, “that depict” for “illustrating”, “10 μg/ml etoposide.” for “1.2 μM staurosporine (STS).”
as §10

[5] = retroviral expression, 1.2 μM staurosporine or 10 μg/ml etoposide, Annexin-V
[6] = tBID-expressing retrovirus, Annexin-V at 24 hr

Molecule | time of complete release of cytochrome c (vdac2 -/- MEF cell lines [1]) [h] | time of partial release of cytochrome c into the cytosol (vdac2 -/- MEF cell lines [1]) [h] | cells with diffuse cytosolic staining for cytochrome c (wt MEF lines) [%] | time to BAK oligomerization (vdac2 -/- MEF cell lines [2]) [h] | cells with diffuse cytosolic staining for cytochrome c (vdac2 -/- MEF lines) [%] | time to BAK oligomerization (wt MEF cell lines [3]) [h] | release of cytochrome c at 3 and 5 hours (wt MEF cell lines [4]) | apoptosis after staurosporine or etoposide (Bax -/- MEFs; [5]) | tBID-induced apoptosis (Bax -/- MEFs; [6]) | susceptibility to apoptosis after re-expression (vdac2 -/- MEFs) | apoptosis after staurosporine or etoposide (Bak -/- MEFs; [5]) | tBID-induced apoptosis (Bak -/- MEFs; [6])
CN[C@@H]1C[C@H]2O[C@@](C)([C@@H]1OC)n1c3ccccc3c3c4c(c5c6ccccc6n2c5c31)C(=O)NC4 [staurosporine] | ≤ 5 | ≤ 3 | 16 | ≤ 5 | 83 | ~10 | had not initiated any release of cytochrome c |  |  |  |  | 
VDAC2: Voltage-Dependent Anion Channel-2, murine, retrovirally expressed (protein, UniProt Q60930 1-295, looked up) Non-selective voltage-gated …: MAECCVPVCPRPMCIPPPYADLGKAARDIFNKGFGFGLVKLDVKTKSCSGVEFSTSGSSNTDTGKVSGTLETKYKWCEYGLTFTEKWNTDNTLGTEIAIEDQICQGLKLTFDTTFSPNTGKKSGKIKSAYKRECINLGCDVDFDFAGPAIHGSAVFGYEGWLAGYQMTFDSAKSKLTRSNFAVGYRTGDFQLHTNVNNGTEFGGSIYQKVCEDFDTSVNLAWTSGTNCTRFGIAAKYQLDPTASISAKVNNSSLIGVGYTQTLRPGVKLTLSALVDGKSFNAGGHKLGLALELEA |  |  |  |  |  |  |  | significantly inhibited apoptosis | inhibited | reversed the increased susceptibility to apoptosis | no effect | not
